One data set deals with Cyprinodon variegatus. To be noted: chronic/long-term; duration: 28 days; time to hatch.
The subject of another data set is Oryctolagus sp. To be noted: reproduction developmental.
In a further data set the test system is Colinus virginianus. The note with it: for LD50: acute, oral, mortality.
Another data set has as its system Bibionidae. To be noted: chronic/long-term; duration: 28 days; other.
The test system of another data set is Rattus norvegicus. To be noted: acute; oral; mortality.
A further data set has as its system Daphnia magna. To be noted: chronic/long-term; duration: 21 days; reproduction.
A further data set concerns Apis mellifera. The note with it: acute, duration: 48 hours, mortality.
The subject of another data set is Oncorhynchus mykiss. To be noted: acute; duration: 96 hours; mortality.
In a further data set the test system is Aphidius rhopalosiphi. The data set can be described thus: LR50; higher = less toxic. The note with it: acute; duration: 48 hours; mortality.
The subject of the next data set is Typhlodromus pyri. Description: LR50; higher = less toxic. The note with it: chronic/long-term; duration: 14 days; mortality.

The record followed here is EPA's ToxValDB 9.5 (doi:10.2903/j.efsa.2013.3352).

Usually NOAEL stands for the highest tested level that showed no adverse finding. As for `Nc1cc(Cl)nc(C(=O)O)c1Cl` [4-Amino-3,6-dichloro-2-pyridinecarboxylic acid], the NOEC worked out at 0.1 mg/L in the data set with Cyprinodon variegatus; 130 mg/L with Bibionidae; 100 mg/L with Daphnia magna; 3.2 mg/kg with Tagia sp. (chronic/long-term, duration: 8 weeks). Moreover, the NOAEL in the data set on Oryctolagus sp. (clinical signs) is 26 mg/kg-day; in the data set with Oryctolagus sp. (no effects) it was 256 mg/kg-day. The LD50 in the data set with Colinus virginianus (diet) was over 1460 mg/kg-day; in the data set on Colinus virginianus, over 2250 mg/kg-day; in the data set on Rattus norvegicus it was over 5000 mg/kg-day; in the data set with Apis mellifera (dermal) it was over 100 µg/piece; in the data set with Apis mellifera (oral, unspecified), over 120 µg/piece. Further, in the data set on Colinus virginianus (reproduction developmental, reproduction), the NOEL turned out to be 190 mg/kg-day. In addition, the LC50 in the data set on Tagia sp. (acute, duration: 14 days, mortality) is over 1000 mg/kg; in the data set on Oncorhynchus mykiss it was over 100 µg/mL. Also, the LR50 in the data set with Aphidius rhopalosiphi and in the data set with Typhlodromus pyri was over 60 g/ha throughout.
